What is called LogP is a log measure of how a compound divides between an organic and an aqueous phase.

The conditions of data set [1]: octanol-water partition logarithm; source not stated; cited from earlier work.
Data set [2] is described as follows: Solution Homogeneity Test. Conditions: Table 6, GID, water and alcohols, % composition. Format: physicochemical. The text has this:
In one aspect, as two-phase reaction products are problematic, scavenger system homogeneity is desired. The two phases could be emulsified or otherwise finely dispersed, but in practice, even fine, seemingly stable dispersions eventually separate or stratify in extended storage or critical use and are not robust enough for practical use. They are not allowed, for example, to be fed through capillaries for fear of plugging them. In this pass/fail test, a sample is held up for visual inspection in a backlit clear vial. A clear, single-phase, homogeneous solution is a pass. Anything else is a fail.

A short description of data set [3]: Short Reaction Time Capacity Test. To be noted: for contribution to the BT capacity (coefficient of best fit equation) / contribution to the FD capacity (coefficient of best fit equation): Short Reaction Time Capacity Test, Table 2 compositions. The source says: (§1) Referring now to FIG. 1, therein is schematically depicted a sulfide scavenger testing system 100 comprising a gas source 2, a flow regulator 4, gas treatment vessel 6, and a sulfide measurement device 8. In one testing embodiment, gas (not shown) is flowed from gas source 2 via gas feed piping 10 into flow regulator 4, which regulates gas flow to gas treatment vessel 6 via regulated gas feed piping 12. The regulated gas flows into gas treatment vessel 6 via a bottom inlet 14 thereof, where it comes into contact with a volume of liquid 16 comprising a sulfide scavenger system (not separately labeled). The gas, having been treated by the liquid, flows out of a top end 18 of gas treatment vessel 6 and flows into sulfide measurement device 8 via treated gas outlet piping 20.
In one embodiment, gas flow from the flow regulator 4 is controlled such that the gas is flowed into the gas treatment vessel 6 at a flow rate of 100 mL/min. up to 500 mL/min. In one embodiment, a gas sparging device, such as a fine pore frit (not shown), is utilized to better distribute the gas into the scavenger liquid. In one embodiment, the gas treatment vessel 6 contains about 20 g of a liquid H2S scavenger, such as one or more diaminols/diaminacetals in a chemical system as described above. In one aspect, to the extent possible, H2S and/or CO2 are scavenged from the gas by the scavenger and the treated (“sweet”) gas exits top end 18 of treatment vessel 6. In one embodiment, sulfide measurement device 8 monitors the concentration of H2S leaving treatment vessel 6. in the gas phase. In other embodiments (not shown), a CO2 measurement device may be similarly employed to monitor the concentration of CO2 leaving treatment vessel 6 in the gas phase.
(§2) In one embodiment, gas is flowed through sulfide scavenger testing system 100 until the outlet H2S concentration reaches a 4,000 ppm target, at which point the test is concluded. This relative time duration before the target is reached is used to compare H2S scavenger capacity given the kinetics of each sulfide scavenger system. The longer the duration, the better the capacity.
(§3) The fine bubbles produced rise slowly, providing plenty of time, plenty of surface area, and a short path through which the H2S must diffuse to the scavenger in the liquid 16. Detector 8 on the outlet line 20 is used to measure H2S concentration in the exiting gas. The times to first detection (FD), at a threshold of 15 ppm, and to complete breakthrough (BT), at the detector saturation of 4000 ppm (0.4%), are recorded. This test is designed to measure the effective scavenging capacity in applications with long contact times.
This test is the same as the Long Reaction Time Capacity Test, but without the gas sparging device, so as to produce larger bubbles, and at a higher feed rate of 200 mL/min, after the first 8 minutes at 100 mL/min. The larger bubbles rise quickly through the liquid 16, providing little time, little surface area, and a long path through which the H2S must diffuse to the scavenger in the liquid. This test is designed to measure the effective scavenging capacity in applications with short contact times. It is far more reaction rate dependent than the Long Reaction Time Capacity and so is a more critical and differentiating test.
With triazine, one H2S reacts twice with the same molecule of triazine, replacing one amine, so the rate is “first order”, meaning proportional to the concentration of triazine.

The nature of data set [4]: Long Reaction Time Capacity Test.
Text: as §1
In one embodiment, the gas contained in gas source 2 consists substantially of about 15% H2S, and about 3% CO2, with the remainder being Methane. In one embodiment, gas flow from the flow regulator 4 is controlled such that the gas is flowed into the gas treatment vessel 6 at a flow rate of 100 mL/min. up to 500 mL/min. In one embodiment, a gas sparging device, such as a fine pore frit (not shown), is utilized to better distribute the gas into the scavenger liquid. In one embodiment, the gas treatment vessel 6 contains about 20 g of a liquid H2S scavenger, such as one or more diaminols/diaminacetals in a chemical system as described above. In one aspect, to the extent possible, H2S and/or CO2 are scavenged from the gas by the scavenger and the treated (“sweet”) gas exits top end 18 of treatment vessel 6. In one embodiment, sulfide measurement device 8 monitors the concentration of H2S leaving treatment vessel 6. in the gas phase. In other embodiments (not shown), a CO2 measurement device may be similarly employed to monitor the concentration of CO2 leaving treatment vessel 6 in the gas phase.
as §2
as §3, with “In this test, methane containing 15% H2S and 3% CO2 by weight is sparged via a fine pore frit (not shown) at 100 mL/min through a column of 20 g of scavenger solution (See FIG. 1). The fine” for “The fine”
Note that the true total capacity of a scavenger with infinite time to react is simply equal to the stoichiometry of the reaction—the moles of H2S consumable per mole of scavenging molecule, which can be calculated. This Long Reaction Time Capacity measurement falls short of that ultimate stoichiometric capacity and so is still reaction rate dependent, just less so than the Short Reaction Time Capacity Test.

[5] abbreviates: 20 g test, Eq/test Triazine 0.068, GIDAc 0.157, GIDA 0.076 (7.50 g MeOH, 2.50 g BuOH).
Where [6] appears, read: 20 g test, Triazine 7.50 g + 12.50 g water, GIDAc 11.00 g as GID, 6.00 g MeOH, 3.00 g BuOH, GIDA 6.68 g as GID, 3.32 g water, 7.50 g MeOH, 2.50 g BuOH.
Setting [7] is: 20 g test, Eq/test Triazine 0.068, GIDAc 0.185, GIDA 0.076.
[8] abbreviates: 20 g test, Triazine 7.50 g + 12.50 g water, GIDAc 13.00 g as GID + 7.00 g MeOH, GIDA 6.68 g as GID, 3.32 g water, 8.00 g MeOH, 2.00 g BuOH.

For `CCCCC(CC)CO` (stereo not shown) [2EHOH, 2-Ethylhexanol], in data set [1], the LogP was 2.8.
Consider `OCCOCCO` [DEG, Diethylene Glycol], for which, in data set [1], the LogP is on record as −1.5. The entries for the “Solution Homogeneity” value in data set [2] and in data set [2] (listed as diethylene glycol) were “Fail” and “do not work”, respectively.
Turning to `OCCO` [EG, Ethylene Glycol], in data set [1], the LogP is listed as −1.7. The “Solution Homogeneity” value was “Fail” in data set [2] and “do not work” in data set [2] (listed as Ethylene glycol).
For `CC(C)N=CC=NC(C)C` [GID, N,N′-di(propan-2-yl)ethane-1,2-diimine], the LogP in data set [1] is 2.3. Moreover, in data set [3], the “contribution to the BT capacity (coefficient of best fit equation)” value worked out at 102 minutes per equivalent and the “contribution to the FD capacity (coefficient of best fit equation)” value worked out at 92 minutes per equivalent.
For the compound `O` [H2O, Water], the LogP in data set [1] is recorded as −1.4.
Take `CC(=O)CC(C)C` [MIBK, methyl isobutyl ketone]: in data set [3], the “contribution to the BT capacity (coefficient of best fit equation)” value came out at 601 minutes per equivalent and the “contribution to the FD capacity (coefficient of best fit equation)” value is on record as 515 minutes per equivalent.
With `CO` [MeOH, Methanol], the LogP in data set [1] is on record as −0.7.
As for `CC(O)CO` (stereo not shown) [PG, Propylene Glycol], the LogP in data set [1] is recorded as −1.3.
Take `OCCN1CN(CCO)CN(CCO)C1` [Triazine, reference compound]: in data set [3] (setting [5]), the “Min/Eq BT” value was 380 Min/Eq and the “Min/Eq FD” value worked out at 365 Min/Eq. Further, in data set [3] (setting [6]), the “Min to BT” value stood at 26 min and the “Min to FD” value was found to be 25 min. Besides, in data set [3] (Graph 1 (FIG. 3)), the “molar capacity at short reaction times (comparison, accounting for molar concentration)” value is listed as “lower molar capacity at short reaction times”. Moreover, in data set [4] (setting [7]), the “Min/Eq BT” value is given as 994 Min/Eq and the “Min/Eq FD” value is recorded as 965 Min/Eq. For the same compound, in data set [4] (setting [8]), the “Min to BT” value worked out at 68 min and the “Min to FD” value turned out to be 66 min. Also, the “molar capacity at long reaction times (comparison, accounting for molar concentration)” value in data set [4] (Graph 1 (FIG. 3)) is “greater molar capacity than GIDAc at long reaction times”.
For `CCCCCCCO` [n-C7OH, n-Heptanol], the LogP in data set [1] is reported as 2.5.
For the compound `CCCCCCCCO` [n-C8OH, n-Octanol], in data set [1], the LogP is on record as 3.0.
Regarding Hexylene Glycol [HG], the LogP in data set [1] is 0.0.
